Data taken from US9242963B2, “Organic compounds” (NOVARTIS AG, priority 2008, dated 2016).

Key:
[1] = target: T1, CYP11B2 (aldosterone synthase) (Homo sapiens, UniProt P19099); experiment: Aldosterone cell secretion in NCI-H295R cells; assay type: cell-based; conditions: 24 hours incubation with cell stimulant
T1 construct: the NCI-H295R cells have CYP11B2 (aldosterone synthase) and CYP11B1 (steroid 11-hydroxylase); host or cells: NCI-H295R
T1 sequence (P19099 25-503): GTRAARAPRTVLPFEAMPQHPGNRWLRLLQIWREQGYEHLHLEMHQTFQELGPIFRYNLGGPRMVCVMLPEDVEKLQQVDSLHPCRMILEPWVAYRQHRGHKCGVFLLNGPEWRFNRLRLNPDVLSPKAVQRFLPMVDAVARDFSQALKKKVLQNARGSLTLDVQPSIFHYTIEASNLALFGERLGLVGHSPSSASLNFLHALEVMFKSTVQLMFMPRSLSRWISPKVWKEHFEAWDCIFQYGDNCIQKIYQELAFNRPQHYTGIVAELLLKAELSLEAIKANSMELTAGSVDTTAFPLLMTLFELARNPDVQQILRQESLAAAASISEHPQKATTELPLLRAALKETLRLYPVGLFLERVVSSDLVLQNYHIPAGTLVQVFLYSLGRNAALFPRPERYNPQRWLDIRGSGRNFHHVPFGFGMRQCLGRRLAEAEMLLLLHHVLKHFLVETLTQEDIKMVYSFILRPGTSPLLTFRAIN
Text: (§1) The activities of a compound according to the present invention can be assessed by the following in vitro method well-described in the art.
(§2) In particular, the inhibition of aldosterone and cortisol secretion in vitro can be determined by the following assay.
(§3) The cell line NCI-H295R was originally isolated from an adrenocortical carcinoma and has been characterized in the literature through the stimulable secretion of steroid hormones and the presence of the enzymes essential for steroidogenesis. […]
(§4) For in vitro measurement of aldosterone and cortisol activity, human adrenocortical carcinoma NCI-H295R cells are seeded in NBS 96-well plates at a density of 25,000 cells/well in 100 μL of a growth medium containing DMEM/F12 supplemented with 10% FCS, 2.5% Nu-serum, 1 μg ITS/ml, and 1× antibiotic/antimycotic. […] At the end of incubation, the excretion of aldosterone and cortisol into the culture medium can be detected and quantified by commercially available, specific monoclonal antibodies in radioimmunoassays in accordance with the manufacturer's instructions.
(§5) Measurement of aldosterone can also be performed using a 96-well plate format. […] The amount of aldosterone in each sample is calculated by comparing with a standard curve generated using known quantities of the hormone. […]

[2] = target: T2, CYP11B1 (steroid 11-hydroxylase) (Homo sapiens, UniProt P15538); experiment: Cortisol cell secretion in NCI-H295R cells; assay type: cell-based; conditions: 24 hours incubation with cell stimulant
T2 construct: the NCI-H295R cells have CYP11B2 (aldosterone synthase) and CYP11B1 (steroid 11-hydroxylase); host or cells: NCI-H295R
T2 sequence (P15538 25-503): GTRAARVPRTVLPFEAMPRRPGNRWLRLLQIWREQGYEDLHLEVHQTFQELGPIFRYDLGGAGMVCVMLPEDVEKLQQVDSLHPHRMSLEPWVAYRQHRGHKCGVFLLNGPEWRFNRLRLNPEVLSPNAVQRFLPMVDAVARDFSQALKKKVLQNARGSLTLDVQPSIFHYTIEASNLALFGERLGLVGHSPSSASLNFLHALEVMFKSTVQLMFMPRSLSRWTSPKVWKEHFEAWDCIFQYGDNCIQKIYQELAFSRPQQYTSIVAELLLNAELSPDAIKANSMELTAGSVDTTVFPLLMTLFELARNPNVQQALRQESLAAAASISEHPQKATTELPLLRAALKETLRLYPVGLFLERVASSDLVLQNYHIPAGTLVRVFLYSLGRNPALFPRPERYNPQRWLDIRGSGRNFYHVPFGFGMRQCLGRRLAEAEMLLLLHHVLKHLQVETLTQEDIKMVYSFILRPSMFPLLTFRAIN
Text: as §1, §2, §3, §4, §5

IC50 [1] | IC50 [2] | Structure (SMILES)
35 nM | 1230 nM | CCS(=O)(=O)NC(C)c1cncc(-c2c(C#N)c3ccc(Cl)cc3n2C)c1 (racemic) [216 (other enantiomer), (R) and (S)-ethanesulfonic acid {1-[5-(6-chloro-3-cyano-1-methyl-1H-indol-2-yl)-pyridin-3-yl]-ethyl}-amide]
32 nM | 600 nM | CCS(=O)(=O)NC(C)c1cncc(-c2c(C#N)c3ccc(Cl)cc3n2C)c1 (racemic) [216 (one enantiomer), (R) and (S)-ethanesulfonic acid {1-[5-(6-chloro-3-cyano-1-methyl-1H-indol-2-yl)-pyridin-3-yl]-ethyl}-amide]
